Laboratory results reported in US7025067B2, “Activated charcoal filter for effectively reducing p-benzosemiquinone from the mainstream cigarette smoke” (Council of Scientific and Industrial Research, priority 2001, dated 2006).
Read-outs that look alike come from different tables or passages of the source.

p-benzosemiquinone [p-BSQ]
half-life of p-BSQ (aqueous solution at pH 7.4): about 1.5 hours | half-life of p-BSQ (solid state at the room temperature): 48 h
